Experimental data as given in patent US11945790B2 (ImmunoMolecular Therapeutics, Inc., priority 2020, dated 2024).

Target: HLA-DQ2 (Homo sapiens, UniProt P01909+P01920)
Experiment: Inhibition of IL-2 secretion by TCR transductants stimulated by α-gliadin peptides presented by HLA-DQ2 expressing K562 cells (ELISA)
Type: cell-based
Conditions: tested as trans racemate unless otherwise noted, lines naming several Examples = stereoisomer mixture of those Examples; for % Inh at 200 uM: inhibition of IL-2 secretion at 200 uM; for EC50: inhibition of IL-2 secretion, dose-response
Protocol: Three commercially available analogues of the DQ2 binding molecules of the invention were tested for their ability to inhibit stimulation of T cell receptor (TCR) transductants in the presence of HLA-DQ2 expressing cells presenting known α-gliadin epitopes.
Using a previously published in vitro assay (Ostrov D, et al. Methyldopa blocks MHC class II binding to disease specific antigens in autoimmune diabetes. J Clin Invest. 2018:128 (5)) the ability of these DQ2 binding analogues to inhibit interleukin-2 (IL-2) secretion by TCR transductants stimulated by α-gliadin peptides presented by HLA-DQ2 was determined. Individual TCR transductants (recognizing a I-gliadin or a II-gliadin) were cultured with a gliadin peptide plus the small molecule analogues in the presence of HLA-DQ2 expressing K562 cells serving as antigen presenting cells. TCR transductants cultured with no gliadin peptide served as the negative control, and incubation with an anti-CD3 antibody (eBioscience; clone 2C11) served as a positive control for the TCR transductant. Secreted IL-2 in the culture supernatant was measured using a highly sensitive enzyme-linked immunosorbent assay (ELISA). […] Assays for effects on cell viability and for specificity, assayed in the absence of gliadin peptide or in the presence of a stimulating anti-CD3 antibody, were performed. Unless otherwise noted, the stereochemistry shown below represents the relative configuration. Further, unless otherwise noted, compounds were tested as the trans racemate.

HLA-DQ2, sequence (P01920 33-261 limits assumed, other chains not shown): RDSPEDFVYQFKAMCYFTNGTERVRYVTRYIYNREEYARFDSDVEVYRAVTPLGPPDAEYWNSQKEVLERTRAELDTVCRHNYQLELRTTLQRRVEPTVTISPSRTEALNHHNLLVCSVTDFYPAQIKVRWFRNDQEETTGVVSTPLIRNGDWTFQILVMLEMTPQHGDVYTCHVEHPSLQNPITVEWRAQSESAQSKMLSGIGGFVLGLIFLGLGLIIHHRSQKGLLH

SMILES | % Inh at 200 uM | EC50 [µM]
O=C(CS(=O)(=O)C1CCCC1)N1CCN(C(=O)[C@@H]2CC2c2ccccc2)CC1 (some centres unmarked) [Example 102] | C (C=25-49%) | 
O=C(CCS(=O)(=O)c1ccccc1)N1CCN(C(=O)C2CC2c2ccc3c(c2)OCO3)CC1 (centres unmarked) [Example 16] | A (A=≥75%) | 
O=C(c1ccccc1F)N1CCN(C(=O)C2CC2c2ccc3c(c2)OCO3)CC1 (centres unmarked) [Example 22] | B (B=50-74%) | 
NC(=O)c1ccccc1OCC(=O)N1CCN(C(=O)[C@@H]2C[C@H]2c2ccccc2)CC1 [Example 90] | B (B=50-74%) | 
Cc1cc(C(=O)N2CCN(C(=O)C3CC3c3ccc4c(c3)OCO4)CC2)c(C)o1 (centres unmarked) [Example 8] | A (A=≥75%) | 
O=C(CSC1CCCC1)N1CCN(C(=O)C2CC2c2cccs2)CC1 (centres unmarked) [Example 14] | A (A=≥75%) | 
CN(CC(=O)N1CCN(C(=O)[C@H]2CC2c2ccccc2)CC1)C1CCCC1 (some centres unmarked) [Example 82] | B (B=50-74%) | 
O=C(COc1ccccc1)N1CCN(C(=O)[C@@H]2C[C@H]2c2ccccc2)CC1 (relative stereo) [Example 48, 2-Phenoxy-1-(4-(trans-2-phenylcyclopropanecarbonyl)piperazin-1-yl) ethanone] | B (B=50-74%) | 
O=C(CSC1CCCC1)N1CCN(C(=O)[C@H]2C[C@@H]2c2ccc(F)c(F)c2)CC1 [Example 35] | A (A=≥75%) | 
O=C(COc1cccc(O)c1)N1CCN(C(=O)[C@@H]2C[C@H]2c2ccccc2)CC1 [Example 96] | B (B=50-74%) | 
O=C(C1CCCC1)N1CCN(C(=O)C2CC2c2ccc3c(c2)OCO3)CC1 (centres unmarked) [Example 25] | A (A=≥75%) | 
O=C(O)CCSCC(=O)N1CCN(C(=O)[C@@H]2C[C@H]2c2ccccc2)CC1 [Example 112] | D (D=0-24%) | 
O=C(CSc1ccc(F)cc1)N1CCN(C(=O)C2CC2c2ccc3c(c2)OCO3)CC1 (centres unmarked) [Example 5] | B (B=50-74%) | 
O=C(COc1cccc(F)c1)N1CCN(C(=O)[C@@H]2C[C@H]2c2ccccc2)CC1 [Example 99] | B (B=50-74%) | 
COc1cccc([C@H]2C[C@@H]2C(=O)N2CCN(C(=O)CSC3CCCC3)CC2)c1 [Example 27] | B (B=50-74%) | 
O=C(COC1CCC1)N1CCN(C(=O)[C@@H]2C[C@H]2c2ccccc2)CC1 (racemic) [Example 39, 2-Cyclobutoxy-1-(4-(trans-2-phenylcyclopropanecarbonyl)piperazin-1-yl) ethanone] | B (B=50-74%) | 

SMILES | % Inh at 200 uM | EC50 [µM]
COC(=O)c1cccc(OCC(=O)N2CCN(C(=O)[C@@H]3C[C@H]3c3ccccc3)CC2)c1 (relative stereo) [Example 109] | A (A=≥75%) | 50 to 100
O=C(COC1CC1)N1CCN(C(=O)[C@@H]2C[C@H]2c2ccccc2)CC1 (racemic) [Example 38, 2-Cyclopropoxy-1-(4-(trans-2-phenylcyclopropanecarbonyl)piperazin-1-yl) ethanone] | C (C=25-49%) | 
O=C(CSC1CCCC1)N1CCN(C(=O)[C@H]2C[C@@H]2c2ccccc2)CC1 [Example 13, 2-(Cyclopentylthio)-1-(4-((1S,2S)-2-phenylcyclopropanecarbonyl)piperazin-1-yl)ethanone] | A (A=≥75%) | 
O=C(CSC1CCCC1)N1CCN(C(=O)[C@H]2C[C@@H]2c2ccccc2Cl)CC1 [Example 36] | A (A=≥75%) | 
CN(C)c1cccc(C(=O)N2CCN(C(=O)C3CC3c3ccc4c(c3)OCO4)CC2)c1 (centres unmarked) [Example 20] | B (B=50-74%) | 
O=C(O)c1ccccc1OCC(=O)N1CCN(C(=O)[C@@H]2C[C@H]2c2ccccc2)CC1 [Example 97] | C (C=25-49%) | 
CS(=O)(=O)N1CCC(C(=O)N2CCN(C(=O)C3CC3c3ccc4c(c3)OCO4)CC2)CC1 (centres unmarked) [Example 26] | C (C=25-49%) | 
CSc1ccccc1C(=O)N1CCN(C(=O)C2CC2c2ccc3c(c2)OCO3)CC1 (centres unmarked) [Example 19] | C (C=25-49%) | 
O=C(CSC1CCCC1)N1CCN(C(=O)[C@@H]2C[C@H]2c2ccccc2F)CC1 [Example 33] | B (B=50-74%) | 
N#Cc1cccc([C@H]2C[C@@H]2C(=O)N2CCN(C(=O)CSC3CCCC3)CC2)c1 [Example 31] | C (C=25-49%) | 
O=C(c1ccccc1C(F)(F)F)N1CCN(C(=O)C2CC2c2ccc3c(c2)OCO3)CC1 (centres unmarked) [Example 21] | C (C=25-49%) | 
O=C(Cc1cccs1)N1CCN(C(=O)C2CC2c2ccc3c(c2)OCO3)CC1 (centres unmarked) [Example 24] | A (A=≥75%) | 
O=C(COc1ccc(F)cc1)N1CCN(C(=O)C2CC2c2ccc3c(c2)OCO3)CC1 (centres unmarked) [Example 6] | A (A=≥75%) | 
O=C(CSC1CCCC1)N1CCN(C(=O)[C@@H]2C[C@H]2c2ccc(F)cc2)CC1 [Example 68] | C (C=25-49%) | 
O=C(CSC1CCCC1)N1CCN(C(=O)[C@H]2C[C@@H]2c2ccccc2O)CC1 [Example 37] | B (B=50-74%) | 
O=C(CSC1CCCC1)N1CCN(C(=O)[C@H]2C[C@@H]2c2cccc(Cl)c2)CC1 [Example 32] | B (B=50-74%) | 

Continued, values first:

% Inh at 200 uM | EC50 [µM] | SMILES
B (B=50-74%) |  | O=C(CSc1ccccc1O)N1CCN(C(=O)[C@@H]2C[C@H]2c2ccccc2)CC1 [Example 88]
B (B=50-74%) |  | O=CNc1ccc(SCC(=O)N2CCN(C(=O)[C@@H]3C[C@H]3c3ccccc3)CC2)cc1 [Example 74]
B (B=50-74%) |  | O=C(CSc1ccc(Cl)cc1)N1CCN(C(=O)[C@@H]2C[C@H]2c2ccccc2)CC1 (relative stereo) [Example 57, 2-((4-Chlorophenyl)thio)-1-(4-(trans-2-phenylcyclopropane-carbonyl)piperazin-1-yl) ethanone]
B (B=50-74%) |  | Cc1ccc(SCC(=O)N2CCN(C(=O)[C@@H]3C[C@H]3c3ccccc3)CC2)cc1C (relative stereo) [Example 56, 2-((3,4-Dimethylphenyl)thio)-1-(4-(trans-2-phenylcyclopropanecarbonyl)piperazin-1-yl) ethanone]
B (B=50-74%) |  | O=CNc1ccccc1OCC(=O)N1CCN(C(=O)[C@@H]2C[C@H]2c2ccccc2)CC1 [Example 93]
B (B=50-74%) |  | COc1ccccc1SCC(=O)N1CCN(C(=O)[C@@H]2C[C@H]2c2ccccc2)CC1 [Example 63]
C (C=25-49%) |  | O=C(COc1ccc(O)cc1)N1CCN(C(=O)[C@@H]2C[C@H]2c2ccccc2)CC1 [Example 95]
B (B=50-74%) |  | O=C(COc1ccccc1F)N1CCN(C(=O)[C@@H]2C[C@H]2c2ccccc2)CC1 [Example 98]
B (B=50-74%) |  | O=C(O)c1ccc(SCC(=O)N2CCN(C(=O)[C@@H]3C[C@H]3c3ccccc3)CC2)cc1 [Example 104]
A (A=≥75%) | 100 to 200 | COC(=O)c1ccc(OCC(=O)N2CCN(C(=O)[C@@H]3C[C@H]3c3ccccc3)CC2)cc1 (relative stereo) [Example 106, Methyl 4-(2-oxo-2-(4-(trans-2-phenylcyclopropanecarbonyl)piperazin-1-yl)ethoxy) benzoate]
C (C=25-49%) |  | O=CNc1cccc(OCC(=O)N2CCN(C(=O)[C@@H]3C[C@H]3c3ccccc3)CC2)c1 [Example 94]
C (C=25-49%) |  | NC(=O)c1ccc(SCC(=O)N2CCN(C(=O)[C@@H]3C[C@H]3c3ccccc3)CC2)cc1 (relative stereo) [Example 85, 4-((2-Oxo-2-(4-(trans-2-phenylcyclopropanecarbonyl)piperazin-1-yl)ethyl)thio)benzamide]
C (C=25-49%) |  | O=C(CSc1cccc(O)c1)N1CCN(C(=O)[C@@H]2C[C@H]2c2ccccc2)CC1 [Example 87]
A (A=≥75%) |  | O=C(COc1ccc(F)cc1)N1CCN(C(=O)[C@@H]2C[C@H]2c2ccccc2)CC1 [Example 108]
A (A=≥75%) |  | Cc1ccc(SCC(=O)N2CCN(C(=O)[C@@H]3C[C@H]3c3ccccc3)CC2)c(C)c1 [Example 70]
C (C=25-49%) |  | O=C(CSc1ccc(F)cc1Cl)N1CCN(C(=O)[C@@H]2C[C@H]2c2ccccc2)CC1 (relative stereo) [Example 59, 2-((2-Chloro-4-fluorophenyl)thio)-1-(4-(trans-2-phenylcyclo-propanecarbonyl)piperazin-1-yl)ethanone]
A (A=≥75%) |  | O=C(CSc1ccccc1F)N1CCN(C(=O)[C@@H]2C[C@H]2c2ccccc2)CC1 (relative stereo) [Example 58, 2-((2-Fluorophenyl)thio)-1-(4-(trans-2-phenylcyclopropane-1-carbonyl)piperazin-1-yl) ethan-1-one]
C (C=25-49%) |  | Cc1ccccc1SCC(=O)N1CCN(C(=O)[C@@H]2C[C@H]2c2ccccc2)CC1 (relative stereo) [Example 50, 1-(4-(Trans-2-phenylcyclopropanecarbonyl)piperazin-1-yl)-2-(o-tolylthio)ethanone]
A (A=≥75%) |  | Cc1ccc(SCC(=O)N2CCN(C(=O)[C@@H]3C[C@H]3c3ccccc3)CC2)c(F)c1 (relative stereo) [Example 71, 2-((2-Fluoro-4-methylphenyl)thio)-1-(4-(trans-2-phenylcyclopropane-1-carbonyl)piperazin-1-yl) ethan-1-one]
